According to patent US9611277B2 (Janssen Pharmaceutica NV, priority 2013, dated 2017):
Read-outs that look alike come from different tables or passages of the source.

Experiments:
[1] = molecular target: human orexin 1 receptor (Homo sapiens, UniProt O43613); experiment: Human orexin 1 receptor radioligand binding; settings: read-out: hOX1 Ki
Experimental: (§1) Data are analyzed using pc-Sandy macro and graphed on Graphpad Prism 5. For analysis, each concentration point is averaged from triplicate values and the averaged values are plotted on Graphpad Prism. The IC50 was determined by applying the following equation (GraphPad Prism 5.0, SanDiego) for one site competition where X=log (concentration) and Y=specific binding. Top denotes the total [^3H]-(1-(5-(2-fluoro-phenyl)-2-methyl-thiazol-4-yl)-1-((S)-2-(5-phenyl-(1,3,4)oxadiazol-2-ylmethyl)-pyrrolidin-1-yl)-methanone) binding, bottom denotes the nonspecific [^3H]-(1-(5-(2-fluoro-phenyl)-2-methyl-thiazol-4-yl)-1-((S)-2-(5-phenyl-(1,3,4)oxadiazol-2-ylmethyl)-pyrrolidin-1-yl)-methanone) binding. Graphpad Prism calculates Ki value from IC50 and the pre-determined Kd values for [^3H]-(1-(5-(2-fluoro-phenyl)-2-methyl-thiazol-4-yl)-1-((S)-2-(5-phenyl-(1,3,4)oxadiazol-2-ylmethyl)-pyrrolidin-1-yl)-methanone) and [3H]-EMPA. The Ki for each compound is then uploaded into 3DX. Each run comprises individual compounds in triplicate. The data in Table 1 and Table 2 represent averages from between 2-20 runs
(§2) Rat and Human Orexin 1 Receptor Radioligand Binding Studies
(§3) After centrifugation (2K×G, 5 min at 4° C.), the supernatant was aspirated and the pellets frozen and stored at −80° C. […] Each cell pellet from a 15 cm plate was resuspended in 10 mL, stored on ice, and homogenized for 45 sec prior to addition to the reactions. […] The final concentration of DMSO in the reactions is equal to or less than 0.1%. Total and nonspecific binding was determined in the absence and presence of 10 μM almorexant. The total volume of each reaction is 200 μL (20 μL of diluted compounds, 80 μL of [^3H]-(1-(5-(2-fluoro-phenyl)-2-methyl-thiazol-4-yl)-1-((S)-2-(5-phenyl-(1,3,4)oxadiazol-2-ylmethyl)-pyrrolidin-1-yl)-methanone) diluted in PBS and 100 μL of the cell suspension). […] The plates were washed 3 times by aspirating 30 ml PBS through the plates. Plates were dried in 55° C. oven for 60 min, scintillation fluid was added, and the radioactivity was counted on a Topcount (Packard).

[2] = molecular target: rat orexin 1 receptor (Rattus norvegicus, UniProt P56718); experiment: Rat orexin 1 receptor radioligand binding; settings: read-out: rOX1 Ki
Experimental: as §1, §2, §3

[3] = molecular target: human orexin 2 receptor (Homo sapiens (Human), UniProt O43614); experiment: Human orexin 2 receptor radioligand binding; settings: read-out: hOX2 Ki
Experimental: as §1
Human Orexin 2 Receptor Radioligand Binding Studies
as §3, with “HEK293 stably expressing human orexin 2 receptor (Genebank accession number NM_001526) were grown to confluency in DMEM (Hyclone, cat # SH30022), 10% FBS, 1× Pen/Strep, 1× NaPyruvate, 10 mM HEPES, 600 ug/ml G418 media on 150 cm^2 tissue culture plates, washed with 5 mM EDTA in PBS (HyClone Dulbecco's Phosphate Buffered Saline 1× with Calcium and Magnesium, Cat # SH30264.01, hereafter referred to simply as PBS) and scraped into 50 ml tubes. After” for “After”, “sec just” for “sec”, “[^3H]-EMPA” for “[^3H]-(1-(5-(2-fluoro-phenyl)-2-methyl-thiazol-4-yl)-1-((S)-2-(5-phenyl-(1,3,4)oxadiazol-2-ylmethyl)-pyrrolidin-1-yl)-methanone)”

[4] = human orexin 1 receptor, averages of 2-20 runs
[5] = rat orexin 1 receptor, averages of 2-20 runs
[6] = human orexin 2 receptor, averages of 2-20 runs

Sequence of human orexin 2 receptor (O43614 whole entry): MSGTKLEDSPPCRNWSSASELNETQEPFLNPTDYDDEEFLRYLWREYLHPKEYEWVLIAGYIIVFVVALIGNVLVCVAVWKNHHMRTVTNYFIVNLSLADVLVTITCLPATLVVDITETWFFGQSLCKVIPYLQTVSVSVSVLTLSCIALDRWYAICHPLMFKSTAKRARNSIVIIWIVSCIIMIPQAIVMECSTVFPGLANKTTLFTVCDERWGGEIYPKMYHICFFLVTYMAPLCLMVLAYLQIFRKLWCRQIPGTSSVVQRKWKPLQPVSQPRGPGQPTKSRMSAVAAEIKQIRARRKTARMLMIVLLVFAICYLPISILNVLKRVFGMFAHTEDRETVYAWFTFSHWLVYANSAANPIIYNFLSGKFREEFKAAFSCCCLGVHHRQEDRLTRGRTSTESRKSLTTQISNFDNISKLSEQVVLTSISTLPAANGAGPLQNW

Row | SMILES | Ki [1, 4] [nM] | Ki [2, 5] [nM] | Ki [3, 6] [nM] | also measured
1 | O=C(c1ccc(F)cc1-c1ncccn1)N1CC2CCC1C(Oc1ccc(C(F)(F)F)cn1)C2 (racemic) [Example 250, (R/S)-(4-fluoro-2-(pyrimidin-2-yl)phenyl)(6-((5-(trifluoromethyl)pyridin-2-yl)oxy)-2-azabicyclo[2.2.2]octan-2-yl)methanone] | 24 | 22 | – | –
2 | O=C(c1ccccc1-c1ncc(F)cn1)N1CC2CCC1C(Oc1ccc(C(F)(F)F)cn1)C2 (racemic) [Example 251, (R/S)-(2-(5-fluoropyrimidin-2-yl)phenyl)(6-((5-(trifluoromethyl)pyridin-2-yl)oxy)-2-azabicyclo[2.2.2]octan-2-yl)methanone] | 11 | 18 | – | –
3 | Cc1cccc(C(=O)N2C[C@H]3C[C@@H](Oc4ccc(C(F)(F)F)cn4)[C@@H]2C3)c1-c1ncco1 [Example 32, (3-methyl-2-(oxazol-2-yl)phenyl)((1S,4R,6R)-6-((5-(trifluoromethyl)pyridin-2-yl)oxy)-2-azabicyclo[2.2.1]heptan-2-yl)methanone] | 6 | – | – | –
4 | Cc1ccc(C(=O)N2C[C@H]3C[C@@H](Oc4ccc(C(F)(F)F)cn4)[C@@H]2C3)c(-n2ccnn2)n1 [Example 34, (6-methyl-2-(1H-1,2,3-triazol-1-yl)pyridin-3-yl)((1S,4R,6R)-6-((5-(trifluoromethyl)pyridin-2-yl)oxy)-2-azabicyclo[2.2.1]heptan-2-yl)methanone] | 368 | 162 | – | –
5 | O=C(c1ccccc1-n1nccn1)N1C[C@H]2C[C@@H](Oc3ccc(C(F)(F)F)cn3)[C@@H]1C2 [Example 36, (2-(2H-1,2,3-triazol-2-yl)phenyl)((1S,4R,6R)-6-((5-(trifluoromethyl)pyridin-2-yl)oxy)-2-azabicyclo[2.2.1]heptan-2-yl)methanone] | 13 | – | – | –
6 | O=C(c1ccc(F)cc1-n1nccn1)N1C[C@H]2C[C@@H](Oc3ccc(C(F)(F)F)cn3)[C@@H]1C2 [Example 44, (4-fluoro-2-(2H-1,2,3-triazol-2-yl)phenyl)((1S,4R,6R)-6-((5-(trifluoromethyl)pyridin-2-yl)oxy)-2-azabicyclo[2.2.1]heptan-2-yl)methanone] | 39 | – | 2330 | –
7 | O=C(c1c(F)cccc1-c1ncccn1)N1C[C@H]2C[C@@H](Oc3ccc(Br)cn3)[C@@H]1C2 [Example 47, ((1S,4R,6R)-6-((5-bromopyridin-2-yl)oxy)-2-azabicyclo[2.2.1]heptan-2-yl)(2-fluoro-6-(pyrimidin-2-yl)phenyl)methanone] | 9 | 6 | – | –
8 | O=C(c1ccccc1-n1nccn1)N1C[C@H]2C[C@@H](Nc3ccc(C(F)(F)F)cn3)[C@@H]1C2 [Example 53, (2-(2H-1,2,3-triazol-2-yl)phenyl)((1S,4S,6R)-6-((5-(trifluoromethyl)pyridin-2-yl)amino)-2-azabicyclo[2.2.1]heptan-2-yl)methanone] | 4 | – | – | –
9 | Cc1ccc(-n2nccn2)c(C(=O)N2C[C@H]3C[C@@H](Nc4ccc(C(F)(F)F)cn4)[C@@H]2C3)n1 [Example 54, (6-methyl-3-(2H-1,2,3-triazol-2-yl)pyridin-2-yl)((1S,4S,6R)-6-((5-(trifluoromethyl)pyridin-2-yl)amino)-2-azabicyclo[2.2.1]heptan-2-yl)methanone] | – | – | – | Ki [1]: 5 nM; Ki [2]: 6 nM
10 | CN(c1ccc(C(F)(F)F)cn1)[C@@H]1C[C@H]2C[C@@H]1N(C(=O)c1cccc(F)c1-c1ncccn1)C2 [Example 157, (3-fluoro-2-(pyrimidin-2-yl)phenyl)((1S,4S,6R)-6-(methyl(5-(trifluoromethyl)pyridin-2-yl)amino)-2-azabicyclo[2.2.1]heptan-2-yl)methanone] | – | 6 | 351 | –
11 | CC(=O)N(c1ccc(C(F)(F)F)cn1)[C@@H]1C[C@H]2C[C@@H]1N(C(=O)c1cccc(F)c1-c1ncccn1)C2 [Example 162, N-((1S,4R,6R)-2-(3-fluoro-2-(pyrimidin-2-yl)benzoyl)-2-azabicyclo[2.2.1]heptan-6-yl)-N-(5-(trifluoromethyl)pyridin-2-yl)acetamide] | – | > 10000 | > 10000 | –
12 | O=C(c1cc(F)ccc1-c1ncccn1)N1C[C@H]2C[C@@H](Nc3ccc(Cl)cn3)[C@@H]1C2 [Example 172, ((1S,4S,6R)-6-((5-chloropyridin-2-yl)amino)-2-azabicyclo[2.2.1]heptan-2-yl)(5-fluoro-2-(pyrimidin-2-yl)phenyl)methanone] | 7 | 8 | – | –
13 | COC(=O)c1cnc(N[C@@H]2C[C@H]3C[C@@H]2N(C(=O)c2ccccc2-n2nccn2)C3)cn1 [Example 221, methyl 5-(((1S,4S,6R)-2-(2-(2H-1,2,3-triazol-2-yl)benzoyl)-2-azabicyclo[2.2.1]heptan-6-yl)amino)pyrazine-2-carboxylate] | – | 2100 | 3000 | –
14 | O=C(c1cccnc1-n1nccn1)N1C[C@H]2C[C@@H](Nc3ncc(C(F)(F)F)cn3)[C@@H]1C2 [Example 222, (2-(2H-1,2,3-triazol-2-yl)pyridin-3-yl)((1S,4S,6R)-6-((5-(trifluoromethyl)pyrimidin-2-yl)amino)-2-azabicyclo[2.2.1]heptan-2-yl)methanone] | – | 261 | > 10000 | –
15 | CCOc1ccc(C)nc1C(=O)N1C[C@H]2C[C@@H](Nc3ncc(C(F)(F)F)cn3)[C@@H]1C2 [Example 233, (3-ethoxy-6-methylpyridin-2-yl)((1S,4S,6R)-6-((5-(trifluoromethyl)pyrimidin-2-yl)amino)-2-azabicyclo[2.2.1]heptan-2-yl)methanone] | – | 280 | 1100 | –
16 | O=C(c1ccc(F)cc1-c1ncccn1)N1C[C@@H]2CC[C@H]1[C@H](Oc1ccc(C(F)(F)F)cn1)C2 [Example 259, (4-fluoro-2-(pyrimidin-2-yl)phenyl)((1S,4R,6R)-6-((5-(trifluoromethyl)pyridin-2-yl)oxy)-2-azabicyclo[2.2.2]octan-2-yl)methanone] | 19 | 16 | – | –
17 | O=C(c1ccccc1-c1ncc(F)cn1)N1C[C@@H]2CC[C@H]1[C@H](Oc1ccc(C(F)(F)F)cn1)C2 [Example 262, (2-(5-fluoropyrimidin-2-yl)phenyl)((1S,4R,6R)-6-((5-(trifluoromethyl)pyridin-2-yl)oxy)-2-azabicyclo[2.2.2]octan-2-yl)methanone] | 10 | 10 | – | –
18 | O=C(c1ccccc1-n1nccn1)N1C[C@@H]2CC[C@H]1[C@H](Nc1cnc(C(F)(F)F)cn1)C2 [Example 275, (2-(2H-1,2,3-triazol-2-yl)phenyl)((1S,4R,6R)-6-((5-(trifluoromethyl)pyrazin-2-yl)amino)-2-azabicyclo[2.2.2]octan-2-yl)methanone] | – | – | – | Ki [3]: 175 nM; Ki [2]: 8 nM
19 | O=C(c1cccc(F)c1-c1ncccn1)N1C[C@H]2CC[C@@H]1[C@@H](Nc1cnc(C(F)(F)F)cn1)C2 [Example 276, (3-fluoro-2-(pyrimidin-2-yl)phenyl)((1R,4S,6S)-6-((5-(trifluoromethyl)pyrazin-2-yl)amino)-2-azabicyclo[2.2.2]octan-2-yl)methanone] | – | 2700 | > 10000 | –
20 | Cc1ccc(-n2nccn2)c(C(=O)N2C[C@H]3C[C@@H](Oc4ccc5cccnc5n4)[C@@H]2C3)n1 [Example 286, ((1S,4R,6R)-6-((1,8-naphthyridin-2-yl)oxy)-2-azabicyclo[2.2.1]heptan-2-yl)(6-methyl-3-(2H-1,2,3-triazol-2-yl)pyridin-2-yl)methanone] | – | 822 | 3100 | –
